Experimental data taken from patent US4017607A.
≈ marks a conversion by molar mass, not a printed value. Where two headings read alike, the source gives them in different places.

Key:
[1] = tested on: gram-negative and gram-positive bacteria; experiment: Antibacterial activity (in words); format: cell-based
[2] = tested on: Staphylococcus albus 1200A; experiment: Minimum inhibitory concentration, serial dilution method; format: cell-based; conditions: read-out: Minimum Inhibitory Concentration
[3] = tested on: Diplococcus pneumoniae Type I; experiment: as above; format: cell-based; conditions: Streptococcus pneumoniae; Diplococcus pneumoniae Type I; 24 hours, 37° C; read-out: Minimum Inhibitory Concentration
[4] = tested on: Staphylococcus aureus Smith; experiment: as above; format: cell-based; conditions: read-out: Minimum Inhibitory Concentration
[5] = tested on: Streptococcus hemolyticus D-90; experiment: as above; format: cell-based; conditions: Streptococcus pyogenes, read-out: Minimum Inhibitory Concentration
[6] = tested on: Corynebacterium diphtheriae Type intermedius; experiment: as above; format: cell-based; conditions: Corynebacterium diphtheriae Type intermedius; 24 hours, 37° C; read-out: Minimum Inhibitory Concentration
[7] = tested on: Corynebacterium diphtheriae Type gravis; experiment: as above; format: cell-based; conditions: Corynebacterium diphtheriae Type gravis; 24 hours, 37° C; read-out: Minimum Inhibitory Concentration
[8] = tested on: Streptococcus pyogenes D-58; experiment: as above; format: cell-based; conditions: D58; Streptococcus pyogenes D-58; 24 hours, 37° C; read-out: Minimum Inhibitory Concentration
[9] = tested on: Bacillus subtilis PCI 219; experiment: as above; format: cell-based; conditions: PCI219; Bacillus subtilis PCI 219; 24 hours, 37° C; read-out: Minimum Inhibitory Concentration
Sarcina lutea = experiment: as above; format: cell-based; conditions: Micrococcus luteus; Sarcina lutea; 24 hours, 37° C; read-out: Minimum Inhibitory Concentration
[10] = tested on: Bacillus subtilis ATCC 6633; experiment: as above; format: cell-based; conditions: read-out: Minimum Inhibitory Concentration
[11] = tested on: Streptococcus faecalis ATCC 8043; experiment: as above; format: cell-based; conditions: Enterococcus faecalis, read-out: Minimum Inhibitory Concentration
[12] = tested on: Staphylococcus aureus 209P; conditions: 7th day, 10 mice per group
[13] = tested on: Staphylococcus aureus Terajima; experiment: Minimum inhibitory concentration, serial dilution method; format: cell-based; conditions: read-out: Minimum Inhibitory Concentration
[14] = tested on: Staphylococcus aureus 209P; experiment: Minimum inhibitory concentration, serial dilution method, Brain Heart Infusion broth; format: cell-based; conditions: read-out: Minimum Inhibitory Concentration
[15] = tested on: Bacillus anthracis No. 119; experiment: microbe, parasite or virus in culture; format: cell-based; conditions: NO.119, 24 h, read-out: Minimum Inhibitory Concentration
[16] = tested on: Diplococcus pneumoniae Type III; experiment: Minimum inhibitory concentration, serial dilution method; format: cell-based; conditions: Streptococcus pneumoniae; Diplococcus pneumoniae Type III; 24 hours, 37° C; read-out: Minimum Inhibitory Concentration
[17] = tested on: Streptococcus hemolyticus Cook; experiment: as above; format: cell-based; conditions: Streptococcus pyogenes; Streptococcus hemolyticus Cook; 24 hours, 37° C; read-out: Minimum Inhibitory Concentration
[18] = Staphylococcus albus 1200A, 24 hours, 37° C
[19] = Staphylococcus aureus Smith, 24 hours, 37° C
[20] = D90, Streptococcus hemolyticus D-90, 24 hours, 37° C
[21] = ATCC6633, Bacillus subtilis ATCC 6633, 24 hours, 37° C
[22] = ATCC8043, Streptococcus faecalis ATCC 8043, 24 hours, 37° C
[23] = Staphylococcus aureus Terajima, 24 hours, 37° C
[24] = Staphylococcus aureus 209P, 24 hours, 37° C
[25] = Bacillus subtilis, ATCC6633, 24 h
[26] = Staphylococcus aureus, 209P, 24 h

SMILES	antibacterial activity [1]	MIC [2, 18] [µg/mL]	MIC [3] [µg/mL]	MIC [4, 19] [µg/mL]	MIC [5, 20] [µg/mL]	MIC [6] [µg/mL]	MIC [7] [µg/mL]	MIC [8] [µg/mL]	MIC [9] [µg/mL]	MIC (Sarcina lutea) [µg/mL]	MIC [11, 22] [µg/mL]	Rate of surviving mice in each group of mice ([12]; 100 mg/kg oral)	Rate of surviving mice in each group of mice ([12]; 200 mg/kg oral)	MIC [15] [µg/mL]	MIC [16] [µg/mL]	MIC [17] [µg/mL]	also measured
CCC(=O)OC1CC(=O)OC(C)CC=CC=CC(OC(C)=O)C(C)CC(C=COC(C)=O)C(OC2OC(C)C(OC3CC(C)(OC(=O)CC)C(OC(C)=O)C(C)O3)C(N(C)C)C2O)C1OC (stereo not drawn)	no antibacterial activity	–	–	–	–	–	–	–	–	–	–	–	–	–	–	–	–
CCC(=O)OC1CC(=O)OC(C)CC=CC=CC(OC(C)=O)C(C)CC(C=COC(C)=O)C(OC2OC(C)C(OC3CC(C)(OC(=O)CC)C(OC(C)=O)C(C)O3)C(N(C)C)C2OC(C)=O)C1OC (stereo not drawn)	substantially no antibacterial activity	–	–	–	–	–	–	–	–	–	–	–	–	–	–	–	–
CCC(=O)OC1CC(=O)OC(C)CC=CC=CC(OC(C)=O)C(C)CC(CC=O)C(OC2OC(C)C(OC3CC(C)(OC(=O)CC)C(OC(C)=O)C(C)O3)C(N(C)C)C2O)C1OC (stereo not drawn) [Compound No. 1]	–	1.56 (≈ 1.74 µM)	0.09 (≈ 0.1 µM)	0.39 (≈ 0.434 µM)	0.78 (≈ 0.869 µM)	0.19 (≈ 0.212 µM)	0.19 (≈ 0.212 µM)	0.19 (≈ 0.212 µM)	0.78 (≈ 0.869 µM)	0.09 (≈ 0.1 µM)	0.78 (≈ 0.869 µM)	6/10	10/10	0.78 (≈ 0.869 µM)	0.09 (≈ 0.1 µM)	0.19 (≈ 0.212 µM)	MIC [10, 21]: 1.56 µg/mL (≈ 1.74 µM); MIC [13, 23]: 3.12 µg/mL (≈ 3.47 µM); MIC [14, 24]: 1.56 µg/mL (≈ 1.74 µM)
CCC(=O)OC1CC(=O)OC(C)CC=CC=CC(OC(C)=O)C(C)CC(CC=O)C(OC2OC(C)C(OC3CC(C)(OC(=O)CC)C(OC(=O)CC(C)C)C(C)O3)C(N(C)C)C2O)C1OC (stereo not drawn) [Compound No. 4]	–	–	0.39 (≈ 0.415 µM)	–	0.19 (≈ 0.202 µM)	0.19 (≈ 0.202 µM)	0.19 (≈ 0.202 µM)	0.19 (≈ 0.202 µM)	0.78 (≈ 0.83 µM)	0.09 (≈ 0.0957 µM)	0.78 (≈ 0.83 µM)	0/10	3/10	1.56 (≈ 1.66 µM)	0.19 (≈ 0.202 µM)	0.39 (≈ 0.415 µM)	MIC ([2]; Staphylococcus, 1200A, 24 h): 1.56 µg/mL (≈ 1.66 µM); MIC ([4]; Staphylococcus aureus, 24 h): 1.56 µg/mL (≈ 1.66 µM); MIC [10, 25]: 1.56 µg/mL (≈ 1.66 µM); MIC ([13]; Staphylococcus aureus, 24 h): 1.56 µg/mL (≈ 1.66 µM); MIC [14, 26]: 1.56 µg/mL (≈ 1.66 µM)
CCC(=O)OC1CC(=O)OC(C)CC=CC=CC(OC(C)=O)C(C)CC(CC=O)C(OC2OC(C)C(OC3CC(C)(O)C(OC(=O)CC)C(C)O3)C(N(C)C)C2O)C1OC (stereo not drawn) [9-mono-acetyl SF-837 substance, reference compound]	–	0.78 (≈ 0.911 µM)	0.04 (≈ 0.0467 µM)	0.78 (≈ 0.911 µM)	–	0.19 (≈ 0.222 µM)	0.19 (≈ 0.222 µM)	0.39 (≈ 0.456 µM)	0.78 (≈ 0.911 µM)	0.09 (≈ 0.105 µM)	–	5/10	8/10	1.56 (≈ 1.82 µM)	0.04 (≈ 0.0467 µM)	0.39 (≈ 0.456 µM)	MIC ([5]; D90, 24 h): 1.56 µg/mL (≈ 1.82 µM); MIC [10, 25]: 1.56 µg/mL (≈ 1.82 µM); MIC ([11]; ATCC8043, 24 h): 1.56 µg/mL (≈ 1.82 µM); MIC ([13]; Staphylococcus aureus, 24 h): 1.56 µg/mL (≈ 1.82 µM); MIC [14, 26]: 1.56 µg/mL (≈ 1.82 µM)
CCC(=O)OC1C=CC=CCC(C)OC(=O)CC(OC(=O)CC)C(OC)C(OC2OC(C)C(OC3CC(C)(OC(=O)CC)C(OC(=O)CC)C(C)O3)C(N(C)C)C2O)C(CC=O)CC1C (stereo not drawn) [Compound No. 7]	–	1.56 (≈ 1.68 µM)	0.19 (≈ 0.205 µM)	0.78 (≈ 0.842 µM)	1.56 (≈ 1.68 µM)	0.19 (≈ 0.205 µM)	0.19 (≈ 0.205 µM)	0.09 (≈ 0.0972 µM)	0.78 (≈ 0.842 µM)	0.09 (≈ 0.0972 µM)	0.78 (≈ 0.842 µM)	5/10	10/10	0.78 (≈ 0.842 µM)	0.09 (≈ 0.0972 µM)	0.19 (≈ 0.205 µM)	MIC [10, 21]: 1.56 µg/mL (≈ 1.68 µM); MIC [13, 23]: 1.56 µg/mL (≈ 1.68 µM); MIC [14, 24]: 0.78 µg/mL (≈ 0.842 µM)
CCC(=O)OC=CC1CC(C)C(OC(C)=O)C=CC=CCC(C)OC(=O)CC(OC(=O)CC)C(OC)C1OC1OC(C)C(OC2CC(C)(OC(=O)CC)C(OC(=O)CC)C(C)O2)C(N(C)C)C1O (stereo not drawn) [9-acetyl-18,3"-di-propionyl SF-837 substance]	Not observed	–	–	–	–	–	–	–	–	–	–	–	–	–	–	–	–
